Measured values: the NIST ThermoML archive (doi:10.1021/acs.jced.8b00438)

Test: xn = mol fraction of the nth substance listed
Details: 100 kPa, Liquid; for mass density: Vibrating tube method; for viscosity: Falling or rolling sphere viscometry

CCCCCCCCCCCC [dodecane] + CCCCO
Details | mass density, 313.15 K [kg/m3] | mass density, 318.15 K [kg/m3] | mass density, 323.15 K [kg/m3] | mass density, 328.15 K [kg/m3] | mass density, 333.15 K [kg/m3] | viscosity, 318.15 K [mPa·s] | viscosity, 323.15 K [mPa·s] | viscosity, 328.15 K [mPa·s] | viscosity, 333.15 K [mPa·s]
x1 = 0.1045 | 779.2 | 775.23 | 771.21 | 767.14 | 763.01 | 1.379 | 1.241 | 1.121 | 1.017
x1 = 0.2008 | 768.93 | 764.95 | 760.93 | 756.86 | 752.73 | 1.239 | 1.122 | 1.02 | 0.931
x1 = 0.3002 | 760.78 | 756.81 | 752.8 | 748.75 | 744.64 | 1.138 | 1.038 | 0.949 | 0.871
x1 = 0.3985 | 754.33 | 750.39 | 746.41 | 742.38 | 738.31 | 1.075 | 0.985 | 0.906 | 0.837
x1 = 0.4995 | 748.93 | 745.02 | 741.07 | 737.08 | 733.06 | 1.022 | 0.942 | 0.871 | 0.808
x1 = 0.5978 | 744.69 | 740.81 | 736.9 | 732.96 | 728.98 | 0.997 | 0.923 | 0.856 | 0.797
x1 = 0.7012 | 740.88 | 737.02 | 733.15 | 729.25 | 725.32 | 0.972 | 0.902 | 0.84 | 0.784
x1 = 0.7671 | 739.06 | 735.24 | 731.4 | 727.53 | 723.64 | 0.968 | 0.9 | 0.839 | 0.785
x1 = 0.8773 | 736.32 | 732.55 | 728.77 | 724.96 | 721.13 | 0.964 | 0.899 | 0.839 | 0.785
x1 = 1 | 734.31 | 730.66 | 727 | 723.33 | 719.65 | 1.003 | 0.936 | 0.877 | 0.823
